Five compounds from patent publication US3979515A, “Novel dibenzo(b,f)azepines as thymoanaleptics” (Roussel-UCLAF, priority 1969, dated 1976) can be followed below.

Structures are written as SMILES.

Data set [1] is described as follows: acute toxicity determination. As to conditions: mouse, in vivo, ip; Rockland mice 18-22 g, intraperitoneal, observed for 7 days; read-out: LD50 (50% of animals died).
For data set [2], the system named is eyelid ptosis caused by reserpine. Description: eyelid ptosis test (antagonism of reserpine, anti-depressant activity). As to conditions: 1 h before reserpine 1 mg/kg i.p., read 4 h after reserpine, percent of controls receiving reserpine only. Format: in vivo, rats. On the procedure: The anti-depressant activity was determined by the eyelid ptosis test codified by Rubin, J. Pharm. Exp. Ther. Vol. 120 (1957), p. 125. […] The eyelid ptosis test is used as a quantitative evaluation of the animal's condition but the antagonism is equally exerted on all the neuro-depressive symptoms of reserpine: immobility, […], hypothermia,myosis, etc. […] The results of Table I are expressed as percent of ptosis compared to the controls receiving reserpine only.

Data set [3] can be described thus: solubility in water (product description). Format: physicochemical. As to conditions: qualitative.

In general, LD50 refers to the dose expected to kill half of the subjects tested. As for `CNCCC1=Cc2ccccc2N(C)c2ccccc21.Cl` [5-methyl-10(β-monomethylaminoethyl)-dibenzo (b,f) azepine hydrochloride], in data set [1], the LD50 at 168 h was approximately 75 mg/kg. For the same compound, the “% of ptosis” value came to 100% in data set [2] (1 mg/kg i.p.); 72% in data set [2] (2 mg/kg i.p.); 50% in data set [2] (5 mg/kg i.p.); 33% in data set [2] (10 mg/kg i.p.); 11% in data set [2] (20 mg/kg i.p.). In data set [3], the solubility in water result is “insoluble in ether and water”.
With `CN(C)CCC1=Cc2ccccc2N(C)c2ccccc21` [5-methyl-10-(β-dimethylaminoethyl)-dibenzo (b,f) azepine], in data set [1], the LD50 at 168 h is approximately 50 mg/kg. In addition, the “% of ptosis” value amounted to 100% in data set [2] (2 mg/kg i.p.), 59% in data set [2] (5 mg/kg i.p.), 37% in data set [2] (10 mg/kg i.p.) and 30% in data set [2] (20 mg/kg i.p.). Further, the solubility in water result in data set [3] is given as “insoluble in water”.
For `CN(C)CCC1=Cc2ccccc2N(C)c2cc(Cl)ccc21` [7-chloro-5-methyl-10-(β-dimethylaminoethyl)-dibenzo (b,f) azepine], the solubility in water entry in data set [3] is listed as “insoluble in water”.
Same read-out and setting: the entry for `CN(C)CCC1=Cc2ccccc2N(C)c2ccc(Cl)cc21` [8-chloro-5-methyl-10-(β-dimethylaminoethyl)-dibenzo(b,f)azepine] is “insoluble in water”; for `CNCCC1=Cc2ccccc2N(C)c2cc(Cl)ccc21` [fumarate of 7-chloro-5-methyl-10-(β-monomethylaminoethyl)-dibenzo (b,f) azepine] it is “slightly soluble in water”.
